Data reported in ChEMBL document CHEMBL1143404, “New plasmid-mediated fluoroquinolone efflux pump, QepA, found in an Escherichia coli clinical isolate” (2007).
Converted amounts (≈) assume the structure as drawn. The source made the active and inactive calls. The calls are words filed in the database; no cut-off is given here.

Legend:
Escherichia coli [1] = assay: Antimicrobial activity against Escherichia coli KAM32 pHPA containing mutated GyrA gene by agar dilution method; format: functional
Escherichia coli [2] = assay: Antimicrobial activity against multidrug-resistant Escherichia coli C316 pHPA containing mutated GyrA gene by agar dilution method; format: functional
Escherichia coli [3] = assay: Antimicrobial activity against Escherichia coli KAM32 pSTV28 containing chloramphenicol-resistant vector by agar dilution method; format: functional
Escherichia coli [4] = assay: Antimicrobial activity against Escherichia coli KAM32 pSTVdeltaqepA containing disrupted qepA gene by agar dilution method; format: functional
Escherichia coli [5] = assay: Antimicrobial activity against Escherichia coli KAM32 pSTVqepA containing qepA gene ligated to pSTV28 plasmid by agar dilution method; format: functional
Escherichia coli [6] = assay: Ratio of MIC for Escherichia coli KAM32 pSTVqepA mutant to MIC for Escherichia coli KAM32 pSTV28 mutant; format: functional
[7] = target: T1, Plasmid efflux fluoroquinolone (Escherichia coli) (UniProt A5H8A5); assay: Inhibition of qepA-mediated drug efflux in Escherichia coli KAM32 assessed as increase in accumulation of Norfloxacin by fluorescence spectroscopy
T1 sequence (whole entry): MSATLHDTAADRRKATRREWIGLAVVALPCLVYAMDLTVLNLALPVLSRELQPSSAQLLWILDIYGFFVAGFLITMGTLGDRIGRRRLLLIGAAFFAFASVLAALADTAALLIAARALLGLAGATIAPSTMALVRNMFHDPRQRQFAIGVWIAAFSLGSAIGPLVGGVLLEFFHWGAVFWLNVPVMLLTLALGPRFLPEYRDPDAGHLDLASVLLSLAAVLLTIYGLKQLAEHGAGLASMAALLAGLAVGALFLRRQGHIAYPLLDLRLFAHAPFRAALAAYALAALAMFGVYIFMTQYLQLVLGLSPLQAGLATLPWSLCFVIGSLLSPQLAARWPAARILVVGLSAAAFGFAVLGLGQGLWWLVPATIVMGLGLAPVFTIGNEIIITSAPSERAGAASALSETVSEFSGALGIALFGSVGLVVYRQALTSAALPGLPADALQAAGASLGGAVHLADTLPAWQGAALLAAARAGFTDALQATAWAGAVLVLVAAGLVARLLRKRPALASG

Escherichia coli [8] = assay: Antimicrobial activity against Escherichia coli KAM32 expressing deltaacrB ydhE hsd gene by agar dilution method; format: functional

| Structure (SMILES) | MIC (Escherichia coli [1]) [µg/mL] | MIC (Escherichia coli [2]) [µg/mL] | MIC (Escherichia coli [3]) [µg/mL] | MIC (Escherichia coli [4]) [µg/mL] | MIC (Escherichia coli [5]) [µg/mL] | Ratio (Escherichia coli [6]) | Activity [7] | MIC (Escherichia coli [8]) [µg/mL] |
| --- | --- | --- | --- | --- | --- | --- | --- | --- |
| CC1(C)S[C@@H]2[C@H](NC(=O)[C@H](N)c3ccccc3)C(=O)N2[C@H]1C(=O)O [AMPICILLIN] | > 128 | > 128 | – | – | – | – | – | – |
| N#CC(C#N)=NNc1cccc(Cl)c1 [CARBONYL CYANIDE M-CHLOROPHENYLHYDRAZONE] | 16 (≈ 78.2 µM) | 16 (≈ 78.2 µM) | 16 (≈ 78.2 µM) | 16 (≈ 78.2 µM) | 16 (≈ 78.2 µM) | 1 | Active | 16 (≈ 78.2 µM) |
| O=C(O)c1cn(C2CC2)c2cc(N3CCNCC3)c(F)cc2c1=O [CIPROFLOXACIN] | 0.064 (≈ 0.193 µM) | > 128 | – | – | – | – | – | – |
| C[C@H](CCC(=O)O)[C@H]1CC[C@H]2[C@@H]3CC[C@@H]4C[C@H](O)CC[C@]4(C)[C@H]3C[C@H](O)[C@]12C [DEOXYCHOLIC ACID] | 512 (≈ 1300 µM) | > 1020 | 512 (≈ 1300 µM) | 512 (≈ 1300 µM) | 512 (≈ 1300 µM) | 1 | – | 1020 (≈ 2610 µM) |
| CCN1CCN(c2cc3c(cc2F)c(=O)c(C(=O)O)cn3C2CC2)CC1 [ENROFLOXACIN] | 0.25 (≈ 0.696 µM) | > 128 | 0.008 (≈ 0.0223 µM) | 0.008 (≈ 0.0223 µM) | 0.25 (≈ 0.696 µM) | 32 | – | 0.008 (≈ 0.0223 µM) |
| CC[C@H]1OC(=O)[C@H](C)[C@@H](O[C@H]2C[C@@](C)(OC)[C@@H](O)[C@H](C)O2)[C@H](C)[C@@H](O[C@@H]2O[C@H](C)C[C@H](N(C)C)[C@H]2O)[C@](C)(O)C[C@@H](C)C(=O)[C@H](C)[C@@H](O)[C@]1(C)O [ERYTHROMYCIN] | > 128 | > 128 | 1 (≈ 1.36 µM) | 1 (≈ 1.36 µM) | 2 (≈ 2.73 µM) | 2 | – | 2 (≈ 2.73 µM) |
| C[n+]1c2cc(N)ccc2cc2ccc(N)cc21.[Cl-] [EUFLAVINE] | 4 | > 128 | 2 | 2 | 4 | 2 | – | 2 |
| COc1c(N2CCNC(C)C2)c(F)cc2c(=O)c(C(=O)O)cn(C3CC3)c12 (stereo not given) [GATIFLOXACIN] | 0.016 (≈ 0.0426 µM) | 32 (≈ 85.2 µM) | 0.002 (≈ 0.00533 µM) | 0.004 (≈ 0.0107 µM) | 0.016 (≈ 0.0426 µM) | 8 | – | 0.004 (≈ 0.0107 µM) |
| CN(C)c1ccc(C(=C2C=CC(=[N+](C)C)C=C2)c2ccc(N(C)C)cc2)cc1.[Cl-] [GENTIAN VIOLET] | 2 | 16 | 2 | 2 | 2 | 1 | – | 2 |
| CC[n+]1c(-c2ccccc2)c2cc(N)ccc2c2ccc(N)cc21.[Br-] [HOMIDIUM BROMIDE] | 8 | > 128 | 4 | 4 | 8 | 2 | – | 4 |
| NC[C@H]1O[C@H](O[C@H]2[C@H](O)[C@@H](O[C@H]3O[C@H](CO)[C@@H](O)[C@H](N)[C@H]3O)[C@H](N)C[C@@H]2N)[C@H](O)[C@@H](O)[C@@H]1O [KANAMYCIN] | > 128 | > 128 | 1 (≈ 2.06 µM) | 128 (≈ 264 µM) | 1 (≈ 2.06 µM) | 1 | – | 1 (≈ 2.06 µM) |
| C[C@H]1COc2c(N3CCN(C)CC3)c(F)cc3c(=O)c(C(=O)O)cn1c23.C[C@H]1COc2c(N3CCN(C)CC3)c(F)cc3c(=O)c(C(=O)O)cn1c23.O [LEVOFLOXACIN] | – | 32 | 0.004 | 0.004 | – | – | – | – |
| CCn1cc(C(=O)O)c(=O)c2cc(F)c(N3CCNC(C)C3)c(F)c21 (stereo not given) [LOMEFLOXACIN] | 0.064 (≈ 0.182 µM) | > 128 | 0.032 (≈ 0.0911 µM) | 0.032 (≈ 0.0911 µM) | 0.064 (≈ 0.182 µM) | 2 | – | 0.032 (≈ 0.0911 µM) |
| COc1c(N2C[C@@H]3CCCN[C@@H]3C2)c(F)cc2c(=O)c(C(=O)O)cn(C3CC3)c12 [MOXIFLOXACIN] | 0.016 (≈ 0.0399 µM) | 32 (≈ 79.7 µM) | 0.002 (≈ 0.00498 µM) | 0.002 (≈ 0.00498 µM) | 0.016 (≈ 0.0399 µM) | 8 | – | 0.002 (≈ 0.00498 µM) |
| CCn1cc(C(=O)O)c(=O)c2ccc(C)nc21 [NALIDIXIC ACID] | 1 (≈ 4.31 µM) | > 128 | 1 (≈ 4.31 µM) | 1 (≈ 4.31 µM) | 2 (≈ 8.61 µM) | 2 | – | 1 (≈ 4.31 µM) |
| CCn1cc(C(=O)O)c(=O)c2cc(F)c(N3CCNCC3)cc21 [NORFLOXACIN] | 0.25 (≈ 0.783 µM) | > 128 | 0.016 (≈ 0.0501 µM) | 0.016 (≈ 0.0501 µM) | 1 (≈ 3.13 µM) | 64 | – | 0.016 (≈ 0.0501 µM) |
| C[C@H]1COc2c(C3(N)CC3)c(F)cc3c(=O)c(C(=O)O)cn1c23 [PAZUFLOXACIN] | 0.016 (≈ 0.0503 µM) | 16 (≈ 50.3 µM) | 0.004 (≈ 0.0126 µM) | 0.004 (≈ 0.0126 µM) | 0.016 (≈ 0.0503 µM) | 4 | – | 0.004 (≈ 0.0126 µM) |
| CC/N=c1\cc2oc3cc(NCC)c(C)cc3c(-c3ccccc3C(=O)OCC)c-2cc1C.Cl [RHODAMINE 6G HYDROCHLORIDE] | 4 | > 128 | 4 | 4 | 4 | 1 | – | 4 |
| CCCCCCCCCCCCOS(=O)(=O)[O-].[Na+] [SODIUM LAURYL SULFATE] | 128 | – | 128 | > 128 | 128 | 1 | – | 128 |
| C[C@@H]1CN(c2c(F)c(N)c3c(=O)c(C(=O)O)cn(C4CC4)c3c2F)C[C@H](C)N1 [SPARFLOXACIN] | 0.002 (≈ 0.0051 µM) | 16 (≈ 40.8 µM) | 0.001 (≈ 0.00255 µM) | 0.001 (≈ 0.00255 µM) | 0.002 (≈ 0.0051 µM) | 2 | – | 0.001 (≈ 0.00255 µM) |
| CN(C)[C@@H]1C(O)=C(C(N)=O)C(=O)[C@@]2(O)C(O)=C3C(=O)c4c(O)cccc4[C@@](C)(O)[C@H]3C[C@@H]12 [TETRACYCLINE] | 0.25 (≈ 0.563 µM) | > 128 | 0.25 (≈ 0.563 µM) | 0.125 (≈ 0.281 µM) | 0.25 (≈ 0.563 µM) | 1 | – | 0.25 (≈ 0.563 µM) |
| NC1CCN(c2nc3c(cc2F)c(=O)c(C(=O)O)cn3-c2ccc(F)cc2F)C1 (stereo not given) [TOSUFLOXACIN] | 0.032 (≈ 0.0791 µM) | > 128 | 0.002 (≈ 0.00495 µM) | 0.002 (≈ 0.00495 µM) | 0.032 (≈ 0.0791 µM) | 16 | – | 0.002 (≈ 0.00495 µM) |
